Where two headings read alike, the source gives them in different places.
Key:
[1] = system: ZR-75-1 breast cancer cells; assay: Synergy/antagonism testing; assay type: cell-based; details: co-treatment with CGS-15943, 120H; FIG. 14
Method: 1000 cells per well were seeded in 384 well clear bottom tissue culture plates and incubated overnight at 37° C. and 4% CO2. The following day, compounds were dispensed in a combination grid format using the Tecan Digital Dispenser. Plates were incubated for 5 days and then viability was assayed using CellTiter-Glo® Cellular Viability Assay. Analysis and Synergy plots were generated using the publicly available Combenefit software package.
AHR has been previously described to bind a range of endogenous and exogenous aromatic ligands (Denison et al. Tox. Sci. 2004, see Table 2), resulting in the formation of a nuclear heterodimer with ARNT. The dimer then binds dioxin-responsive elements and drives gene expression, after nuclear translocation. AHR has been described to bind a wide range of aromatic substrates including agonists, antagonists, and modulators.

[2] = system: MDA-MB-231 breast cancer cell lines; assay: cytotoxicity, control cells vs cells overexpressing CYP1A1; assay type: cell-based
Description: The dependence of each compound's cytotoxic effects upon CYP1A1 was also examined, via screening of MDA-MB-231 breast cancer cell lines for cytotoxic response. The CYP1A1-dependence of the cytotoxic response of to each tested compound was specifically determined by comparing the cytotoxicity of each compound administered to control cells with that of the compound administered to corresponding cells that overexpressed CYP1A1. […]

[3] = system: MDA-MB-468 and ZR51 breast cancer and JHH7 liver cancer cell lines
[4] = system: Twelve different breast cancer cell lines; assay: adenosine receptor antagonists and agonists dosed on twelve breast cancer cell lines; assay type: cell-based; details: 32 adenosine receptor antagonists/agonists compared; FIG. 6B
578 cancer cell lines = assay: PRISM multiplexed cellular viability screening; assay type: cell-based; details: relation to FOXA1 / FOXA1 target expression across cell lines
Method: The instant discovery was made using large-scale multiplex profiling of existing drugs against 578 cancer cell lines, employing a PRISM multiplexed cellular viability assay.
Parental cell lines were obtained from the Cancer Cell Line Encyclopedia (CCLE) project (1). PRISM cell line barcoding, pooling, and screening was performed as previously described with several improvements to the original method (2). First, the lentiviral vector was modified to encode the unique barcode identifier at the end of the puromycin resistance gene. This enables barcodes to be detected using a variant of the mRNA capture and Luminex detection method developed for the L1000 gene expression assay (3). Second, a set of ten inert barcodes were spiked-in to each well of each plate after cell lysis to control for variation in PCR amplification as detailed below.
Luminex technology produced .Ixb files containing data for each Luminex bead observed during detection. These .Ixb files were processed to compute Median Fluorescence Intensity (MFI) values, calculated as the median of the values obtained for all beads corresponding to a single PRISM barcode.
MFI values were log-transformed (log MFI) and used to perform basic quality control. To detect probable screening artifacts, log MFI values were centered to the median log MFI for each cell line on each plate in order to put the measurements from each cell line on the same scale. For each well on each plate, the median of these centered values was then standardized according to the global median and global MAD across all plate wells in the same position. Data from wells with a standardized score of greater than 5 or less than −5 were excluded from all further processing steps.
For each cell line on each plate, the distribution of MFI values observed for the DMSO-treated negative controls was compared to that of the positive controls using a robust form of the Strictly Standardized Mean Difference (SSMD*)′. Specifically, SSMD* was calculated as: […]
Data corresponding to SSMD values less than 2 were removed before calculating cell viability.
The data in the instant disclosure were produced according to two different screening protocols. In the PR500 protocol, ten inert barcodes were spiked-in to each well of each plate after cell lysis. For data produced using the PR500 protocol, normalized MFI (nMFI) values were computed by taking the ratio of each MFI value against the median of the inert barcodes within each well. […]
Cell viability was calculated as the ratio of nMFI to the median of the nMFI from the DMSO-treated negative controls for each cell line on each plate. […] The final viability values were calculated as the median of the batch-corrected cell viabilities from biological replicates for each cell line, compound and dose. […]

[5] = target: T1, recombinant human Adenosine A3 (FAST-004C) receptor (Homo sapiens, UniProt P0DMS8); assay: cAMP HTRF assay, Adenosine A3 receptor, antagonist mode; assay type: cell-based
T1 sequence (P0DMS8 1-318): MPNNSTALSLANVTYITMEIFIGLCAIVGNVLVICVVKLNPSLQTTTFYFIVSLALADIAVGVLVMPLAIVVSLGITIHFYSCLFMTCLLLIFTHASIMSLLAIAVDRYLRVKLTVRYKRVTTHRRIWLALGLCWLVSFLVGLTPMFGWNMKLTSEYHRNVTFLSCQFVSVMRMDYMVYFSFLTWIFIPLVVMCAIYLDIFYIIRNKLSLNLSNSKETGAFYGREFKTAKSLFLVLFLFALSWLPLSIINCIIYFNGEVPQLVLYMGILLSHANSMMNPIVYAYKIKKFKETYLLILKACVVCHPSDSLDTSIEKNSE

[6] = target: recombinant human Adenosine A2A (FAST-002C) receptor (Homo sapiens, UniProt P29274); assay: cAMP HTRF assay, Adenosine A2A receptor, antagonist mode; assay type: cell-based
[7] = target: T2, recombinant human Adenosine A1 (FAST-001C) receptor (Homo sapiens, UniProt P30542); assay: cAMP HTRF assay, Adenosine A1 receptor, antagonist mode; design: inhibition: dose or concentration left out as unconfirmed; details: for inhibition: CHO-K1, read-out: % Inhibition Average at maximal concentration; for Hill Coefficient: antagonist mode dose-response fit
T2 sequence (P30542 1-326): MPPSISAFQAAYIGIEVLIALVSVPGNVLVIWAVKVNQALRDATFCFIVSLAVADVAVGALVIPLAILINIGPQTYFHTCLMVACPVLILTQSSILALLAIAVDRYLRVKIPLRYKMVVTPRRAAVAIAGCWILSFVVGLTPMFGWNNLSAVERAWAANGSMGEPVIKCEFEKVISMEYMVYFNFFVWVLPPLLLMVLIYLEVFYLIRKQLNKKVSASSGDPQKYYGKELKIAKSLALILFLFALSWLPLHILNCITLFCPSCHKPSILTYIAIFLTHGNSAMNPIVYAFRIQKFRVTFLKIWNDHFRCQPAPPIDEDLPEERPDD

[8] = target: T3, recombinant human Adenosine A2B (FAST-003C) receptor (Homo sapiens, UniProt P29275); assay: cAMP HTRF assay, Adenosine A2B receptor, antagonist mode; design: inhibition: dose or concentration left out as unconfirmed; details: for inhibition: HEK293, read-out: % Inhibition Average at maximal concentration; for Hill Coefficient: antagonist mode dose-response fit
T3 sequence (P29275 1-332): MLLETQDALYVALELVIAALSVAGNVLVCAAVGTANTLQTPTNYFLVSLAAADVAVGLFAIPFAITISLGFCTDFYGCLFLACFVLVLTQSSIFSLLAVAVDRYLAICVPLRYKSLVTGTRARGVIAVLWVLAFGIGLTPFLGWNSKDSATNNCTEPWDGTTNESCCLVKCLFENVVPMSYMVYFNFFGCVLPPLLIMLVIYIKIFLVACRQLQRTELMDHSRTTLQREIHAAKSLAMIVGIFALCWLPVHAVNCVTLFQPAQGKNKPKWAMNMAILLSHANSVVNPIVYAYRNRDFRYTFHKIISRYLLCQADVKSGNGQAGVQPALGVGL

[9] = system: MDA-MB-468 breast cancer cells possessing AHR knockout; assay: dose response in AHR knockout (AHR_sg3) cells; assay type: cell-based; details: FIG. 17
Description: Biological replicates were averaged and normalized to vehicle control. Dose curves were generated using Graphpad Prism.

[10] = system: MDA-MB-468 breast cancer cells; assay: Western immunoblot of treated cells over 24 hours; assay type: cell-based; details: FIG. 18
Method: Adherent cells were washed once with cold 1×PBS (Corning #01018002) and lysed with RIPA buffer (Sigma #R0278) supplemented by protease and phosphatase inhibitors (Sigma). Protein content was quantified using the DC Protein Assay (BioRad #5000111). Samples were reduced with (loading buffer) and boiled at 95° C. before being resolved by SDS gel electrophoresis on 4-20% Tris/glycine gels (Invitrogen). Proteins were transferred using the IBlot2 (Thermo #IB21001) onto the iBlot™ 2 nitrocellulose Transfer Stacks (Thermo #IB23001). The membranes were then blocked in Odyssey Blocking Buffer (Li-COR #927-40000) for one hour, and then probed overnight with primary antibodies diluted in blocking buffer. The following day, membranes were washed 3×5 mins with 1×TBST and then probed with LiCOR Infrared secondary antibodies for 1 hour at room temperature. Membranes were washed an additional 3×5 mins in 1×TBST and then imaged using the LiCOR Imager. […]

[11] = system: MDA-MB-468 and ZR51 breast cancer and JHH7 liver cancer cell lines; assay: 5 day cytotoxicity, control cells vs sgRNA knock out of AHR; details: cytotoxicity in control cells compared with AHR sgRNA knock out cells; FIGS. 23 and 24
A3 receptors = target: T4, A3 receptors (Homo sapiens, UniProt P0DMS8); details: previously characterized; cited from earlier work
T4 sequence (P0DMS8 1-318): T1 sequence (P0DMS8 1-318)

[12] = CHO-K1; read-out: % Inhibition Average at maximal concentration
[13] = HEK293; read-out: % Inhibition Average at maximal concentration
[14] = antagonist mode dose-response fit
[15] = antagonist mode; HEK293; reference agonist NECA
[16] = HEK293, read-out: % Inhibition Average at maximal concentration

Chain of recombinant human Adenosine A2A (FAST-002C) receptor (P29274 whole entry): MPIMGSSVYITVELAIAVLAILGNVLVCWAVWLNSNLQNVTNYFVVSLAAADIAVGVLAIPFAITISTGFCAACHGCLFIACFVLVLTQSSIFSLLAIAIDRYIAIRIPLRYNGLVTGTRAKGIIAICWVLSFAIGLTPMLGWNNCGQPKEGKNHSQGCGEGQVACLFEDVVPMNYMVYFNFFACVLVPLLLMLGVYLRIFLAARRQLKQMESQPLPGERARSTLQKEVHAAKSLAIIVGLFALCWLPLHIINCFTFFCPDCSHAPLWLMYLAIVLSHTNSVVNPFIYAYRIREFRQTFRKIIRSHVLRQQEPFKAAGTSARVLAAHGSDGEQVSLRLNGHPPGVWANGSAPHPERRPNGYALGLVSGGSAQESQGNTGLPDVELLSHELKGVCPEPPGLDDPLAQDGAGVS

Structure (SMILES) | CYP1A1-dependence of the cytotoxic response [2] | AHR-dependence of the cytotoxic response [3] | cell killing profile in PRISM (578 cancer cell lines) | inhibition at 10 µM [5, 12] | IC50 [7] | inhibition [7] | Hill Coefficient [7] | IC50 [8] | inhibition [8] | Hill Coefficient [8] | further results
COc1ccc(-c2cc(=O)c3cc(OC)ccc3o2)c(OC)c1 | – | – | – | – | – | – | – | – | – | – | interaction with CGS-15943 (3D Synergy plot) [1]: pronounced antagonism to CGS-15943
O=C(Cc1ccccc1)Nc1nc2ccc(Cl)cc2c2nc(-c3ccco3)nn12 [MRS-1220, reference compound] | CYP1A1-dependent cytotoxic | dependence upon AHR | cell killing profile specific for such FOXA1-dependent cancer cell lines | – | – | – | – | – | – | – | cytotoxicity to breast cancer cell lines [4]: cytotoxic
C=C1Nc2ccccc2-c2nc(-c3ccco3)nn21 | CYP1A1-dependent cytotoxic | dependence upon AHR | – | 31% | 493 nM | 96.1% | 1.17 | 2140 nM | 109% | 1.80 | inhibition at 10 µM [6, 13]: 99.2%; Hill Coefficient [6, 14]: 1.72; IC50 [6, 15]: 1330 nM
Cc1ccc(-c2nc3c4cc(Cl)ccc4nc(N)n3n2)o1 [BRO-013] | CYP1A1-dependent cytotoxic | dependence upon AHR | – | 74.2% | 7.94 nM | 107% | 1.18 | 116 nM | 110% | 1.76 | Hill Coefficient [5, 14]: 1.04; IC50 ([5]; antagonist mode; CHO-K1; reference agonist IB-MECA): 730 nM; inhibition at 10 µM [6, 16]: 112%; Hill Coefficient [6, 14]: 1.39; IC50 [6, 15]: 27.2 nM
Clc1ccc2ncn3nc(-c4ccco4)nc3c2c1 [BRO-022, 9-chloro-2-(furan-2-yl)-[1,2,4]triazolo[1,5-c]quinazoline] | – | – | – | 29.5% | 170 nM | 101% | 1.06 | 2500 nM | 97.8% | 1.39 | inhibition at 10 µM [6, 13]: 60.7%
Cc1cc(-c2nc3cc(F)ccc3s2)ccc1NC(=O)[C@@H](N)CCCCN.Cl.Cl [Phortress] | – | – | more broadly cytotoxic | – | – | – | – | – | – | – | rescue of killing by AHR knockout ([9]; 10 μM): AHR knockout did not rescue cells from Phortress killing; cytotoxicity at high doses ([9]; AHR knockout cells): non-specific cytotoxicity at high doses; CYP1A1 expression ([10]; 24 hour time course): induced CYP1A1 expression; FOXA1 levels ([10]; 24 hour time course): maintenance of FOXA1 levels; DNA double stranded breaks (pH2A.X) and PARP cleavage ([10]; within 24 hours): induced DNA double stranded breaks
Cc1ccc2cc3c(ccc4ccccc43)c3c2c1CC3 [3-Methylcholanthrene, reference compound] | – | – | – | – | – | – | – | – | – | – | AHR-dependence of the cytotoxic response [11]: dependence upon AHR; CYP1A1-dependence of the cytotoxic response ([2]; control MDA-MB-231 compared with cells overexpressing CYP1A1): CYP1A1-dependent cytotoxic
CN(C)c1nc2ccc(Cl)cc2c2nc(-c3ccco3)nn12 [BRO-020, 9-chloro-2-(furan-2-yl)-N,N-dimethyl-[1,2,4]triazolo[1,5-c]quinazolin-5-amine] | – | – | – | – | 72.4 nM | 81.1% | 0.83 | – | 9.09% | – | inhibition at 10 µM ([5]; CHO-K1, read-out: % Inhibition Average at maximal concentration): 8.55%; inhibition at 10 µM [6, 16]: 18.4%
Nc1nc2c(cnn2CCc2ccccc2)c2nc(-c3ccco3)nn12 [SCH-58261] | CYP1A1-dependent cytotoxic | dependence upon AHR | cell killing profile specific for such FOXA1-dependent cancer cell lines | – | – | – | – | – | – | – | Ki (A3 receptors): > 10 µM; cytotoxicity to breast cancer cell lines [4]: cytotoxic
